# Measurements taken from patent US20260042731A1, “(2,4-DICHLOROPHENOXY)ACETIC ACID ANALOGS” (CORTEVA AGRISCIENCE LLC, priority 2022, published 2026).
# Like-named read-outs stand apart in the source and are kept apart here.
# Experiments:
# [1] = test system: Chenopodium album (CHEAL), common lambsquarters; experiment: Postemergence herbicide evaluation, growth of Chenopodium album (CHEAL); assay type: in vivo; settings: Chenopodium album, post-emergence, percent reduction in plant size relative to untreated control, read-out: Ave. CHEAL; for pest or weed control at 280 g/ha: 280 g ae/ha; for pest or weed control at 560 g/ha: 560 g ae/ha
# [2] = test system: Ambrosia artemisiifolia (AMBEL), common ragweed; experiment: Postemergence herbicide evaluation, growth of Ambrosia artemisiifolia (AMBEL); assay type: in vivo; settings: Ambrosia artemisiifolia, post-emergence, percent reduction in plant size relative to untreated control, read-out: AVE. AMBEL; for pest or weed control at 280 g/ha: 280 g ae/ha; for pest or weed control at 560 g/ha: 560 g ae/ha
# [3] = Volatility of compounds measured by thermogravimetric analysis (TGA); assay type: physicochemical
# [4] = test system: Amaranthus rudis (AMATA), tall water hemp; experiment: Postemergence herbicide evaluation, growth of Amaranthus rudis (AMATA); assay type: in vivo; settings: Amaranthus tuberculatus, post-emergence, percent reduction in plant size relative to untreated control, read-out: Ave. AMATA; for pest or weed control at 280 g/ha: 280 g ae/ha; for pest or weed control at 560 g/ha: 560 g ae/ha
# [5] = test system: Abutilon theophrasti (ABUTH), velvetleaf; experiment: Postemergence herbicide evaluation, growth of Abutilon theophrasti (ABUTH); assay type: in vivo; settings: Abutilon theophrasti, post-emergence, percent reduction in plant size relative to untreated control, read-out: AVE. ABUTH; for pest or weed control at 280 g/ha: 280 g ae/ha; for pest or weed control at 560 g/ha: 560 g ae/ha
# [6] = test system: weeds (ABUTH, AMATA, AMBEL, CHEAL, ERICA); experiment: Postemergence herbicide evaluation, overall average % weed control across ABUTH, AMATA, AMBEL, CHEAL, ERICA; assay type: in vivo; settings: post-emergence, average over the five weeds, read-out: Overall Ave % Weed Control; for pest or weed control at 280 g/ha: 280 g ae/ha; for pest or weed control at 560 g/ha: 560 g ae/ha
# [7] = test system: glyphosate resistant Conyza canadensis (L.) (ERICA), horseweed; experiment: Postemergence herbicide evaluation, growth of Conyza canadensis (ERICA); assay type: in vivo; settings: Erigeron canadensis, post-emergence, percent reduction in plant size relative to untreated control, read-out: Ave. ERICA; for pest or weed control at 280 g/ha: 280 g ae/ha; for pest or weed control at 560 g/ha: 560 g ae/ha
# [8] = test system: Glycine max (Enlist E3 traited soybeans, GLXMA); settings: Enlist E3 soybeans, percent reduction in plant size relative to untreated control
structure (smiles),measurement,setting,value
Cc1ccc(S(=O)(=O)NC(=O)COc2ccc(Cl)cc2Cl)cc1 [Compound D5],pest or weed control at 280 g/ha,"[1]; 168 h, 7 DAA",65%
same,pest or weed control at 560 g/ha,"[1]; 168 h, 7 DAA",73%
same,pest or weed control at 280 g/ha,"[1]; 336 h, 14 DAA",70%
same,pest or weed control at 560 g/ha,"[1]; 336 h, 14 DAA",73%
same,pest or weed control at 280 g/ha,"[1]; 504 h, 21 DAA",65%
same,pest or weed control at 560 g/ha,"[1]; 504 h, 21 DAA",68%
same,pest or weed control at 280 g/ha,"[2]; 168 h, 7 DAA",48%
same,pest or weed control at 560 g/ha,"[2]; 168 h, 7 DAA",65%
same,pest or weed control at 280 g/ha,"[2]; 336 h, 14 DAA",68%
same,pest or weed control at 560 g/ha,"[2]; 336 h, 14 DAA",90%
same,pest or weed control at 280 g/ha,"[2]; 504 h, 21 DAA",58%
same,pest or weed control at 560 g/ha,"[2]; 504 h, 21 DAA",85%
same,"TGA Data (rate of weight loss, volatility)",[3],0.02 µg/min
same,pest or weed control at 280 g/ha,"[4]; 168 h, 7 DAA",73%
same,pest or weed control at 560 g/ha,"[4]; 168 h, 7 DAA",73%
same,pest or weed control at 280 g/ha,"[4]; 336 h, 14 DAA",78%
same,pest or weed control at 560 g/ha,"[4]; 336 h, 14 DAA",75%
same,pest or weed control at 280 g/ha,"[4]; 504 h, 21 DAA",75%
same,pest or weed control at 560 g/ha,"[4]; 504 h, 21 DAA",73%
same,pest or weed control at 280 g/ha,"[5]; 168 h, 7 DAA",30%
same,pest or weed control at 560 g/ha,"[5]; 168 h, 7 DAA",40%
same,pest or weed control at 280 g/ha,"[5]; 336 h, 14 DAA",23%
same,pest or weed control at 560 g/ha,"[5]; 336 h, 14 DAA",35%
same,pest or weed control at 280 g/ha,"[5]; 504 h, 21 DAA",25%
same,pest or weed control at 560 g/ha,"[5]; 504 h, 21 DAA",25%
same,pest or weed control at 280 g/ha,"[6]; 168 h, 7 DAA",56%
same,pest or weed control at 560 g/ha,"[6]; 168 h, 7 DAA",61%
same,pest or weed control at 280 g/ha,"[6]; 336 h, 14 DAA",63%
same,pest or weed control at 560 g/ha,"[6]; 336 h, 14 DAA",70%
same,pest or weed control at 280 g/ha,"[6]; 504 h, 21 DAA",59%
same,pest or weed control at 560 g/ha,"[6]; 504 h, 21 DAA",63%
same,pest or weed control at 280 g/ha,"[7]; 168 h, 7 DAA",63%
same,pest or weed control at 560 g/ha,"[7]; 168 h, 7 DAA",53%
same,pest or weed control at 280 g/ha,"[7]; 336 h, 14 DAA",78%
same,pest or weed control at 560 g/ha,"[7]; 336 h, 14 DAA",75%
same,pest or weed control at 280 g/ha,"[7]; 504 h, 21 DAA",73%
same,pest or weed control at 560 g/ha,"[7]; 504 h, 21 DAA",68%
same,AVE. GLXMA,"[8]; 280 g ae/ha, 7 DAA",4%
same,AVE. GLXMA,"[8]; 280 g ae/ha, 14 DAA",2%
same,AVE. GLXMA,"[8]; 280 g ae/ha, 21 DAA",3%
same,AVE. GLXMA,"[8]; 560 g ae/ha, 7 DAA",9%
same,AVE. GLXMA,"[8]; 560 g ae/ha, 14 DAA",5%
same,AVE. GLXMA,"[8]; 560 g ae/ha, 21 DAA",5%
